Data: ChEMBL document CHEMBL1141954, “Indole-2-carboxamidines as novel NR2B selective NMDA receptor antagonists” (Bioorg Med Chem Lett, 2005)

Species on record: Mus musculus
Assay: Oral efficacy in mice formalin test
Type: functional

`COc1ccccc1C/N=C(\N)c1cc2ccccc2[nH]1.Cl` was tested, and the ED50 was 15 mg/kg.

Target: Glutamate NMDA receptor
Assay: Inhibition of NMDA-evoked intracellular calcium increase in rat cortical cell at 1 uM
Type: functional, cell-based

Point of comparison: `COc1cccc(C/N=C(\N)c2cc3ccccc3[nH]2)c1.Cl`, inhibition 57%. Against it:
- Cl.N=C(NCc1ccccc1)c1cc2ccccc2[nH]1 — lower, 32.8%
- COc1ccc(C/N=C(\N)c2cc3ccccc3[nH]2)cc1.Cl — lower, 10.5%

Target: Glutamate NMDA receptor
Assay: Inhibition of NMDA-evoked intracellular calcium increase in rat cortical cells
Type: functional, cell-based

Point of comparison: `COc1ccccc1C/N=C(\N)c1cc2ccccc2[nH]1.Cl`, IC50 35 nM. Against it:
- COc1cccc(OC)c1C/N=C(\N)c1cc2ccccc2[nH]1 — 6.5-fold lower, 5.4 nM
- COc1cccc(OC)c1C/N=C(\N)c1cc2cc(F)ccc2[nH]1 — 2.1-fold lower, 17 nM
- N=C(NCc1ccccc1F)c1cc2ccccc2[nH]1 — 6.6-fold higher, 232 nM
- COc1ccc2[nH]c(C(=N)NCc3ccccc3OC)cc2c1 — 1.8-fold lower, 19 nM
- N=C(NCc1cc(Cl)cc(Cl)c1)c1cc2ccccc2[nH]1 — 4.5-fold higher, 159 nM
- COc1cccc(OC)c1C/N=C(\N)c1cc2cc(Cl)ccc2[nH]1 — 2-fold higher, 69 nM
- Cc1ccccc1C/N=C(\N)c1cc2ccccc2[nH]1 — 4.9-fold higher, 170 nM
- COc1ccccc1CNC(=N)/C=C/c1ccccc1 — 5.3-fold lower, 6.6 nM
- COc1ccccc1C/N=C(\N)c1cc2cc(F)ccc2[nH]1 — within 1.5-fold, 33 nM
- COc1ccc2[nH]c(C(=N)NCc3c(OC)cccc3OC)cc2c1 — within 1.5-fold, 26 nM
- COc1ccccc1C/N=C(\N)c1cc2cc(Cl)ccc2[nH]1 — 1.8-fold higher, 64 nM
- N=C(NCc1c(F)cccc1F)c1cc2ccccc2[nH]1 — 4.1-fold higher, 143 nM

Target: Glutamate NMDA receptor; GRIN1/GRIN2A (Homo sapiens) (UniProt Q05586+Q12879)
Assay: Inhibitory activity against NR1A expressed in combination with NR2A at 15 uM

For `COc1cccc(OC)c1C/N=C(\N)c1cc2ccccc2[nH]1`, the inhibition was 32.1%.
